Data on 1 compound can be found in patent publication US20180368427A1, “Method of Reducing Spoilage in Harvested Produce During Storage and Shipping” (Apeel Technology, Inc., priority 2016, published 2018).

For this assay, the system named is strawberries. In words: Average daily mass loss rate of coated strawberries stored at low relative humidity. The conditions noted are these: over 4 days, 10 mg/mL in ethanol, spray coated, 23-27° C., 40-55% humidity (FIG. 7A), listed as pure PA-2G formulation (712). How it is done:
FIG. 7A is a graph showing average daily mass loss rates for coated and uncoated harvested strawberries stored at low relative humidity levels for 4 days. The coating agents included various mixtures of PA-1G and PA-2G, as detailed below. Each bar in the graph represents average daily mass loss rates for a group of 15 strawberries. The strawberries corresponding to bar 702 were untreated (control group). The strawberries corresponding to bar 704 were treated with a solution for which the coating agent was substantially pure PA-1G. The strawberries corresponding to bar 706 were treated with a solution for which the coating agent was 75% PA-1G and 25% PA-2G by mass. The strawberries corresponding to bar 708 were treated with a solution for which the coating agent was 50% PA-1G and 50% PA-2G by mass. The strawberries corresponding to bar 710 were treated with a solution for which the coating agent was 25% PA-1G and 75% PA-2G by mass. The strawberries corresponding to bar 712 were treated with a solution for which the coating agent was substantially pure PA-2G. […] FIG. 7A is a graph showing average daily mass loss rates, measured over the course of 4 days, of the untreated strawberries and of the strawberries coated with one of the five solutions described above. […]

Turning to `CCCCCCCCCCCCCCCC(=O)OC(CO)CO` [PA-2G, 1,3-dihydroxypropan-2-yl palmitate], the “average daily mass loss rate” value amounted to 6.1%.
